According to patent US6235748A, “Oxo-substituted compounds, process of making, and compositions and methods for inhibiting parp activity” (Guilford Pharmaceuticals Inc., priority 2000, dated 2001):
Entries after “also recorded” stand apart in the source; their conditions may differ.

Experiments:
[1] = test system: ischemia and reperfusion of the heart in rabbits; settings: cited from earlier work
[2] = test system: NO-mediated vascular failure in endotoxic shock; settings: in vivo; cited from earlier work
[3] = test system: focal cerebral ischemia in male Long-Evans rats; test: Infarct in focal cerebral ischemia: distal MCA cauterization with bilateral temporary CCA occlusion; type: in vivo, rat (Long-Evans); settings: for cross-sectional infarct area distribution, result in words: FIG. 1; for damaged (infarct) volume: mean±SD
Description: (§1) Focal cerebral ischemia was produced by cauterization of the right distal MCA (middle cerebral artery) with bilateral temporary common carotid artery occlusion in male Long-Evans rats for 90 minutes. All procedures performed on the animals were approved by the University Institutional Animal Care and Use Committee of the University of Pennsylvania. A total of 42 rats (weights: 230-340 g) obtained from Charles River were used in this study. The animals fasted overnight with free access to water prior to the surgical procedure.
(§2) Two hours prior to MCA occlusion, varying amounts (control, n=14; 5 mg/kg, n=7; 10 mg/kg, n=7; 20 mg/kg, n=7; and 40 mg/kg, n=7) of the PARP inhibitor compound, 3,4-dihydro-5-[4-(1-piperidinyl)-butoxy]-1(2H)-isoquinolinone ("DPQ"), were dissolved in dimethyl sulfoxide (DMSO) using a sonicator. A volume of 1.28 ml/kg of the resulting solution was injected intraperitoneally into fourteen rats.
(§3) The rats were then anesthetized with halothane (4% for induction and 0.8%-1.2% for the surgical procedure) in a mixture of 70% nitrous oxide and 30% oxygen. The body temperature was monitored by a rectal probe and maintained at 37.5±0.5° C. with a heating blanket regulated by a homeothermic blanket control unit (Harvard Apparatus Limited, Kent, U.K.). A catheter (PE-50) was placed into the tail artery, and arterial pressure was continuously monitored and recorded on a Grass polygraph recorder (Model 7D, Grass Instruments, Quincy, Mass.). Samples for blood gas analysis (arterial pH, PaO2 and PaCO2) were also taken from the tail artery catheter and measured with a blood gas analyzer (ABL 30, Radiometer, Copenhagen, Denmark). Arterial blood samples were obtained 30 minutes after MCA occlusion.
(§4) The head of the animal was positioned in a stereotaxic frame, and a right parietal incision between the right lateral canthus and the external auditory meatus was made. Using a dental drill constantly cooled with saline, a 3 mm burr hole was prepared over the cortex supplied by the right MCA, 4 mm lateral to the sagittal suture and 5 mm caudal to the coronal suture. The dura mater and a thin inner bone layer were kept, care being taken to position the probe over a tissue area devoid of large blood vessels. The flow probe (tip diameter of 1 mm, fiber separation of 0.25 mm) was lowered to the bottom of the cranial burr hole using a micromanipulator. The probe was held stationary by a probe holder secured to the skull with dental cement. The microvascular blood flow in the right parietal cortex was continuously monitored with a laser Doppler flowmeter (FloLab, Moor, Devon, U.K., and Periflux 4001, Perimed, Stockholm, Sweden).
Focal cerebral ischemia was produced by cauterization of the distal portion of the right MCA with bilateral temporary common carotid artery (CCA) occlusion by the procedure of Chen et al., "A Model of Focal Ischemic Stroke in the Rat: Reproducible Extensive Cortical Infarction", Stroke, 17:738-43 (1986) and/or Liu et al., "Polyethylene Glycol-conjugated Superoxide Dismutase and Catalase Reduce Ischemic Brain Injury", Am. J. Physiol., 256:H589-93 (1989), both of which are hereby incorporated by reference.
Specifically, bilateral CCA's were isolated, and loops made from polyethylene (PE-10) catheter were carefully passed around the CCA's for later remote occlusion. The incision made previously for placement of the laser doppler probe was extended to allow observation of the rostral end of the zygomatic arch at the fusion point using a dental drill, and the dura mater overlying the MCA was cut. […] The burr hole was covered with a small piece of Gelform, and the wound was sutured to maintain the brain temperature within the normal or near-normal range.
After 90 minutes of occlusion, the carotid loops were released, the tail arterial catheter was removed, and all of the wounds were sutured. Gentamicin sulfate (10 mg/ml) was topically applied to the wounds to prevent infection. […]

[4] = test system: cell viability, glucose metabolism, and DNA synthesis; settings: cited from earlier work
[5] = test system: colitis in rats; settings: colitis induced by intraluminal trinitrobenzene sulfonic acid in 50% ethanol; cited from earlier work
[6] = test system: right parietal cortex blood flow; test: Microvascular blood flow in right parietal cortex by laser Doppler flowmetry; type: in vivo, rat (Long-Evans); settings: for relative blood flow in the right parietal cortex on occlusion: control 20.8±7.7%
Description: as §4
Since the blood flow values obtained from the laser doppler were in arbitrary units, only percent changes from the baseline (prior to occlusion) were reported.

[7] = Arterial blood gases and mean arterial blood pressure in the focal cerebral ischemia model; type: in vivo, rat (Long-Evans); settings: for MABP, ischemia: average during occlusion; for MABP, steady state: just prior to occlusion
Description: as §1, §2, §3
A "steady state" MABP was taken following completion of the surgical preparation, just prior to occlusion; an "ischemia" MABP was taken as the average MABP during occlusion.

[8] = test system: tumor cells; settings: synergy: co-treatment with an alkylating drug; cited from earlier work
[9] = molecular target: T1, recombinant human PARP (Homo sapiens, UniProt P09874); test: PARP enzyme assay with purified recombinant human PARP, [3H]NAD; type: biochemical; settings: TABLE VII; 25° C., 15 minutes; read-out: Approximate IC50's
T1 construct: purchased Trevigen (Gaithersburg, Md.)
T1 sequence (P09874 whole entry): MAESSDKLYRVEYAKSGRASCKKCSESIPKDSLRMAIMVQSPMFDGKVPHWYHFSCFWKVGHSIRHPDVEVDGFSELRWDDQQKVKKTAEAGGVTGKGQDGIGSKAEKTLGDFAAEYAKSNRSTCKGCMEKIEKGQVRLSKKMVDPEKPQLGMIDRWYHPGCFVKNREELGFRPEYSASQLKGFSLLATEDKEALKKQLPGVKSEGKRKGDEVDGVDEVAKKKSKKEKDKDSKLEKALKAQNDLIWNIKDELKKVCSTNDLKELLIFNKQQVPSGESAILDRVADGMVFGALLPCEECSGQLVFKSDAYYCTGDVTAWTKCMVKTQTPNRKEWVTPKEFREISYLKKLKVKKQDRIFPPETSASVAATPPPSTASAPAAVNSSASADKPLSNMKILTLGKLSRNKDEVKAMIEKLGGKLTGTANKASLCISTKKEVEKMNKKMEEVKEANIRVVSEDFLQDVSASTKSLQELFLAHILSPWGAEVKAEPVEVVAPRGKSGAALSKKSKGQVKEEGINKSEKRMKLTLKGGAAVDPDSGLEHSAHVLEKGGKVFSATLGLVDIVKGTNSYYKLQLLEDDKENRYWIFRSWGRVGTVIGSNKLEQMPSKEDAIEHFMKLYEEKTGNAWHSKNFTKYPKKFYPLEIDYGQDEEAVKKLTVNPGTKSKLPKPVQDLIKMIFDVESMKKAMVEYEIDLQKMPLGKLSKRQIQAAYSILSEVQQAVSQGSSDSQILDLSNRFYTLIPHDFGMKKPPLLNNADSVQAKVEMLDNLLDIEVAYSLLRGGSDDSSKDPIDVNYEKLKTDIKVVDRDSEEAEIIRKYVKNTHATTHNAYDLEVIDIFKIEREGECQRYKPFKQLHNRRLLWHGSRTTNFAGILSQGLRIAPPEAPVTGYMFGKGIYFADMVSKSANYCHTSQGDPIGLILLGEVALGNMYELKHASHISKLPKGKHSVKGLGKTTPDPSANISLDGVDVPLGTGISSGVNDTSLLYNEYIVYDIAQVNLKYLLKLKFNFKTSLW
Description: The reaction was initiated by incubating the mixture at 25° C. After 15 minutes' incubation, the reaction was terminated by adding 500 microliters of ice cold 20% (w/v) trichloroacetic acid. The precipitate formed was transferred onto a glass fiber filter (Packard Unifilter-GF/B) and washed three times with ethanol. After the filter was dried, the radioactivity is determined by scintillation counting.

Oc1cccc2c(O)nccc12 [1,5-dihydroxy-isoquinoline]
reduction in infarct size ([1]; 1 mg/kg): 38-48%

NC(=O)c1cccnc1 [nicotinamide]
effect on vascular failure in endotoxic shock, result in words [2]: protects against delayed, NO-mediated vascular failure in endotoxic shock

O=C1NCCc2c(OCCCCN3CCCCC3)cccc21 [3,4-dihydro-5-[4-(1-piperidinyl)-butoxy]-1(2H)-isoquinolinon] [3,4-dihydro-5-[4-(1-piperidinyl)-butoxy]-1(2H)-isoquinolinone]
cross-sectional infarct area distribution, result in words ([3]; 5 mg/kg and 20 mg/kg): fell approximately halfway between the control and the 10 mg/kg curves | infarct volume, result in words ([3]; 40 mg/kg): less neuroprotective | cross-sectional infarct area distribution, result in words ([3]; 40 mg/kg): close to the control | infarct volume, result in words ([3]; overall / dose comparison): U-shaped dose-response curve

NC(=O)c1ccccc1 [benzamide]
effect on other metabolic processes, result in words [4]: shown to affect cell viability, glucose metabolism, and DNA synthesis

NC(=O)c1cccc(N)c1 [3-aminobenzamide]
reduction in infarct size in the heart ([1]; 10 mg/kg, single injection one minute before occlusion or one minute before reperfusion): 32-42% | effect on other metabolic processes, result in words [4]: shown to affect cell viability, glucose metabolism, and DNA synthesis | effect on colitis, result in words [5]: reduced the inflammatory response and restored the morphology and the energetic status of the distal colon

O=C1NCCc2c(OCCCCN3CCCCC3)cccc21 [DPQ, 3,4-dihydro-5-[4-(1-piperidinyl)-butoxy]-1(2H)-isoquinolinone]
damaged (infarct) volume ([3]; 5 mg/kg i.p. 2 h before and 2 h after MCA occlusion, p<0.001 vs control (165.2±34.0 mm^3)): 106.7±23.2 mm^3 | damaged (infarct) volume ([3]; 10 mg/kg i.p. 2 h before and 2 h after MCA occlusion, p<0.001 vs control (165.2±34.0 mm^3)): 76.4±16.8 mm^3 | damaged (infarct) volume ([3]; 20 mg/kg i.p. 2 h before and 2 h after MCA occlusion, p<0.01 vs control (165.2±34.0 mm^3)): 110.2±42.0 mm^3 | infarct volume, result in words ([3]; 40 mg/kg): no significant difference between the control and the 40 mg/kg-treated group | damaged (infarct) volume ([3]; 40 mg/kg i.p. 2 h before and 2 h after MCA occlusion, not significant vs control (165.2±34.0 mm^3)): 135.6±44.8 mm^3 | damaged volume compared to control, result in words ([3]; 5, 10 and 20 mg/kg): significant decrease in the damaged volume | infarct volume, result in words ([3]; overall / dose comparison): significant differences between the 5 mg/kg-treated group and the 10 mg/kg-treated group (p<0.02), and between the 10 mg/kg-treated group and the 40 mg/kg-treated group (p<0.01); also recorded: substantial reduction in infarct volume | relative blood flow in the right parietal cortex on occlusion ([6]; 5 mg/kg-treated group (n=7)): 18.7±7.4 % of the baseline | relative blood flow in the right parietal cortex on occlusion ([6]; 10 mg/kg-treated group (n=7)): 21.4±7.7 % of the baseline | relative blood flow in the right parietal cortex on occlusion ([6]; 40 mg/kg-treated group (n=7)): 19.3±11.2 % of the baseline | blood flow response to occlusion, result in words ([6]; control, 5, 10 and 40 mg/kg): no significant differences in the blood flow response to occlusion among the four groups | PaCO2 ([7]; 5 mg/kg-treated group): 38.0 mm Hg | PaO2 ([7]; 5 mg/kg-treated group): 126 ± 20 mm Hg | arterial pH ([7]; 5 mg/kg-treated group): 7.36 | MABP, ischemia ([7]; 5 mg/kg-treated group, p < 0.01 vs steady state): 91 ± 12 mm Hg | MABP, steady state ([7]; 5 mg/kg-treated group): 78 ± 5 mm Hg | PaCO2 ([7]; 10 mg/kg-treated group): 39.3 mm Hg | PaO2 ([7]; 10 mg/kg-treated group): 125 ± 16 mm Hg | arterial pH ([7]; 10 mg/kg-treated group): 7.34 | MABP, ischemia ([7]; 10 mg/kg-treated group, p < 0.05 vs steady state): 90 ± 14 mm Hg | MABP, steady state ([7]; 10 mg/kg-treated group): 80 ± 9 mm Hg | PaCO2 ([7]; 20 mg/kg-treated group): 41.3 mm Hg | PaO2 ([7]; 20 mg/kg-treated group): 122 ± 14 mm Hg | arterial pH ([7]; 20 mg/kg-treated group): 7.35 | MABP, ischemia ([7]; 20 mg/kg-treated group, p < 0.01 vs steady state): 91 ± 12 mm Hg | MABP, steady state ([7]; 20 mg/kg-treated group): 79 ± 10 mm Hg | PaCO2 ([7]; 40 mg/kg-treated group): 39.5 mm Hg | PaO2 ([7]; 40 mg/kg-treated group): 137 ± 17 mm Hg | arterial pH ([7]; 40 mg/kg-treated group): 7.33 | MABP, ischemia ([7]; 40 mg/kg-treated group, p < 0.05 vs steady state): 88 ± 12 mm Hg | MABP, steady state ([7]; 40 mg/kg-treated group): 78 ± 4 mm Hg | MABP, result in words ([7]; all five groups including control): MABP was significantly elevated following occlusion in all five groups, there were no significant differences in MABP during the occlusion period among the groups | arterial blood gases (PaO2, PaCO2 and pH), result in words ([7]; control and treated groups): within the physiological range in the control and treated groups with no significant differences in these parameters among the five groups

O=c1[nH]c2ccccc2c2ccccc12 [6(5H)-Phenanthridinone]
effect on tumor cells, result in words [8]: reduced proliferation of tumor cells, and a marked synergistic effect when tumor cells are co-treated with this compound and an alkylating drug

O=c1[nH]c2cc(F)ccc2c2ccccc12
IC50 [9]: ~200 nM
